Assay results reported in US7745483B2, “2-Halofuryl-thienyl-3-carboxamides” (Bayer CropScience AG, priority 2004, dated 2010).

System: Botrytis cinerea
Assay: Botrytis test (bean)/protective
Type: in vivo
Details: 48 h, protective, application rate 500 g/ha, evaluation 2 days after inoculation, read-out: Efficacy in %
Method: [table] To produce a suitable preparation of active compound, 1 part by weight of active compound was mixed with the stated amounts of solvent and emulsifier, and the concentrate was diluted with water to the desired concentration. To test for protective activity, young plants are sprayed with the preparation of active compound at the stated application rate. After the spray coating has dried on, 2 small pieces of agar colonized by Botrytis cinerea are placed onto each leaf. The inoculated plants are placed in a dark chamber at about 20° C. and 100% relative atmospheric humidity. The size of the infected areas on the leaves is evaluated 2 days after the inoculation. 0% means an efficacy which corresponds to that of the control, whereas an efficacy of 100% means that no infection is observed.

Structure (SMILES)	pest or weed control at 500 g/ha [%]
CC(C)(C)CCc1cc(F)ccc1NC(=O)c1ccsc1I [drawing 235]	100
O=C(Nc1ccccc1-c1ccc(Cl)cc1)c1ccsc1Br [drawing 255]	100
Cc1ccc(-c2ccccc2NC(=O)c2ccsc2I)cc1F [drawing 248]	100
O=C(Nc1ccccc1-c1ccc(Cl)c(Cl)c1)c1ccsc1Br [drawing 256]	100
O=C(Nc1ccccc1-c1cccc(Cl)c1F)c1ccsc1I [drawing 233]	100
O=C(Nc1ccc(F)cc1-c1cccc(Cl)c1F)c1ccsc1I [drawing 234]	100
CC1CC(C)(C)c2cccc(NC(=O)c3ccsc3I)c21 (stereo not shown) [drawing 249]	100
O=C(Nc1ccccc1-c1ccc(Cl)c(Cl)c1)c1ccoc1I [drawing 238]	100
O=C(Nc1ccccc1-c1ccc(C(F)(F)F)cc1Cl)c1ccsc1I [drawing 227]	100
C[Si](C)(C)CCc1sccc1NC(=O)c1ccsc1I [drawing 259]	100
O=C(Nc1ccccc1-c1ccc(C(F)(F)F)cc1)c1ccsc1I [drawing 246]	100
CC(CC(C)(C)C)c1ccccc1NC(=O)c1ccsc1I (stereo not shown) [drawing 225]	100
O=C(Nc1ccccc1-c1ccc(Cl)c(F)c1)c1ccsc1Br [drawing 257]	100
O=C(Nc1ccccc1-c1ccc(Br)cc1)c1ccsc1I [drawing 241]	100
O=C(Nc1ccccc1-c1ccc(Br)cc1Cl)c1ccsc1I [drawing 229]	100
CC(C)CC(C)c1ccccc1NC(=O)c1ccsc1I (stereo not shown) [drawing 222]	100
O=C(Nc1ccccc1-c1ccc(Br)cc1)c1ccoc1I [drawing 237]	100
O=C(Nc1ccccc1-c1ccc(Cl)cc1)c1ccoc1I [drawing 236]	100
CC(C[Si](C)(C)C)c1ccccc1NC(=O)c1ccsc1I (stereo not shown) [drawing 245]	100

Structure (SMILES)	pest or weed control at 500 g/ha [%]
O=C(Nc1ccccc1-c1ccc(Cl)c(F)c1)c1ccsc1I [drawing 243]	100
O=C(Nc1ccccc1-c1ccc(Cl)c(F)c1)c1ccoc1I [drawing 239]	100
O=C(Nc1ccccc1-c1ccc(F)c(Cl)c1)c1ccsc1I [drawing 258]	99
O=C(Nc1ccncc1-c1ccc(Cl)c(Cl)c1)c1ccsc1I [drawing 228]	100
O=C(Nc1ccccc1-c1cccc(Cl)c1Cl)c1ccsc1I [drawing 232]	100
O=C(Nc1ccccc1-c1ccc(Cl)c(Cl)c1)c1ccsc1I [drawing 242]	100
CC(C)CC(C)c1cc(F)ccc1NC(=O)c1ccsc1I (stereo not shown) [drawing 250]	100
CO/N=C/c1ccc(-c2ccccc2NC(=O)c2ccsc2I)cc1F [drawing 251]	100
O=C(Nc1ccccc1-c1ccc(Br)c(Cl)c1)c1ccsc1I [drawing 231]	100
CC(C[Si](C)(C)C)c1ccccc1NC(=O)c1ccoc1I (stereo not shown) [drawing 244]	100
CC(C)CC(C)c1sccc1NC(=O)c1ccsc1I (stereo not shown) [drawing 252]	100
CC(CC(C)(C)C)c1ccccc1NC(=O)c1ccsc1Br (stereo not shown) [drawing 254]	100
C[Si](C)(C)CCc1ccccc1NC(=O)c1ccsc1I [drawing 226]	100
O=C(Nc1ccccc1-c1ccc(Br)c(F)c1)c1ccsc1I [drawing 230]	100
O=C(Nc1ccc(F)cc1-c1ccc(Cl)c(Cl)c1)c1ccsc1I [drawing 247]	100
O=C(Nc1ccccc1-c1ccc(Cl)cc1)c1ccsc1I [drawing 240]	100
CC(CC(C)(C)C)c1ccccc1NC(=O)c1ccoc1I (stereo not shown) [drawing 224]	100
CC(C)CC(C)c1ccccc1NC(=O)c1ccsc1Br (stereo not shown) [drawing 253]	100
CC(C)CC(C)c1ccccc1NC(=O)c1ccoc1I (stereo not shown) [drawing 223]	99

System: not listed separately
Assay: logP determination by HPLC on a reverse-phase column (EEC Directive 79/831 Annex V.A8)
Type: physicochemical
Details: pH 2.3, reverse-phase column (C 18), 43° C.
Method: The logP values given were determined in accordance with EEC Directive 79/831 Annex V.A8 by HPLC (High Performance Liquid Chromatography) on a reverse-phase column (C 18). Temperature: 43° C. Mobile phases for the determination in the acidic range (pH 2.3): 0.1% aqueous phosphoric acid, acetonitrile; linear gradient from 10% acetonitrile to 90% acetonitrile. Calibration was carried out using unbranched alkan-2-ones (having 3 to 16 carbon atoms) with known logP values (determination of logP values by retention times using linear interpolation between two successive alkanones).

logP	Structure (SMILES)
3.89	O=C(Nc1ccccc1-c1ccc(C(F)(F)F)cc1)c1ccsc1I [Example 26]
4.30	CC(C)(C)CCc1ccccc1NC(=O)c1ccsc1Br [Example 45]
4.17	CC(C)(C)CCc1ccccc1NC(=O)c1ccsc1I [Example 20]
4.21	O=C(Nc1ccccc1-c1ccc(Br)c(Cl)c1)c1ccsc1I [Example 32]
4.13	O=C(Nc1ccc(F)cc1-c1ccc(Cl)c(Cl)c1)c1ccsc1I [Example 24]
4.11	O=C(Nc1ccccc1-c1ccc(Cl)c(Cl)c1)c1ccsc1I [Example 13]
3.89	Cc1ccc(-c2ccccc2NC(=O)c2ccsc2I)cc1F [Example 25]
3.79	CON=Cc1ccc(-c2ccccc2NC(=O)c2ccsc2I)cc1F [Example 40]
3.82	O=C(Nc1ccccc1-c1ccc(Cl)c(F)c1)c1ccsc1I [Example 9]
4.17	CC(C)CC(C)c1cc(F)ccc1NC(=O)c1ccsc1I (stereo not shown) [Example 41]
4.51	CC(CC(C)(C)C)c1ccccc1NC(=O)c1ccsc1Br (stereo not shown) [Example 28]
3.58	O=C(Nc1ccccc1-c1ccc(Br)c(F)c1)c1ccoc1I [Example 4]
4.18	O=C(Nc1ccccc1-c1ccc(C(F)(F)F)cc1Cl)c1ccsc1I [Example 19]
3.62	O=C(Nc1ccccc1-c1ccc(Cl)cc1)c1ccoc1I [Example 11]
4.42	CC(CC(C)(C)C)c1ccccc1NC(=O)c1ccsc1I (stereo not shown) [Example 6]
4.78	C=C(CC(C)(C)C)c1ccccc1NC(=O)c1ccsc1I [Example 14]
4.25	O=C(Nc1ccccc1-c1ccc(Cl)c(Cl)c1)c1ccsc1Br [Example 30]
4.30	CC(C)(C)CCc1cc(F)ccc1NC(=O)c1ccsc1Br [Example 44]
3.67	O=C(Nc1ccccc1-c1cccc(Cl)c1F)c1ccsc1I [Example 33]

logP	Structure (SMILES)
3.93	O=C(Nc1ccccc1-c1ccc(Cl)cc1)c1ccsc1I [Example 8]
3.89	O=C(Nc1ccccc1-c1ccc(Cl)c(Cl)c1)c1ccoc1I [Example 10]
4.01	O=C(Nc1ccccc1-c1cccc(Cl)c1Cl)c1ccsc1I [Example 23]
4.09	CC1CC(C)(C)c2cccc(NC(=O)c3ccsc3I)c21 (stereo not shown) [Example 39]
4.16	CC(C)(C)CCc1cc(F)ccc1NC(=O)c1ccsc1I [Example 37]
4.44	CC(C)(C)CCc1sccc1NC(=O)c1ccsc1I [Example 42]
3.91	O=C(Nc1ccccc1-c1ccc(Cl)c(F)c1)c1ccsc1Br [Example 31]
4.49	C=C(CC(C)(C)C)c1ccccc1NC(=O)c1ccoc1I [Example 15]
3.72	O=C(Nc1ccccc1-c1ccc(Br)cc1)c1ccoc1I [Example 3]
3.69	O=C(Nc1ccc(F)cc1-c1cccc(Cl)c1F)c1ccsc1I [Example 35]
4.16	CC(CC(C)(C)C)c1ccccc1NC(=O)c1ccoc1I (stereo not shown) [Example 7]
4.22	CC(C)CC(C)c1sccc1NC(=O)c1ccsc1I (stereo not shown) [Example 43]
3.79	O=C(Nc1ccccc1-c1ccc(F)c(Cl)c1)c1ccsc1I [Example 38]
4.28	O=C(Nc1ccccc1-c1ccc(Br)cc1Cl)c1ccsc1I [Example 21]
4.57	C=C(CC(C)C)c1ccccc1NC(=O)c1ccsc1I [Example 5]
4.24	CC(C)CC(C)c1ccccc1NC(=O)c1ccsc1Br (stereo not shown) [Example 27]
3.99	O=C(Nc1ccccc1-c1ccc(Cl)cc1)c1ccsc1Br [Example 29]
2.20	O=C(Nc1ccncc1-c1ccc(Cl)c(Cl)c1)c1ccsc1I [Example 34]
3.89	O=C(Nc1ccccc1-c1ccc(Br)c(F)c1)c1ccsc1I [Example 22]

Structure (SMILES)	logP
C[Si](C)(C)CCc1ccccc1NC(=O)c1ccsc1I [Example 18]	4.43
CC(C[Si](C)(C)C)c1ccccc1NC(=O)c1ccsc1I (stereo not shown) [Example 17]	4.69
CC(C[Si](C)(C)C)c1cc(F)ccc1NC(=O)c1ccsc1I (stereo not shown) [Example 36]	4.67
CC(C[Si](C)(C)C)c1ccccc1NC(=O)c1ccoc1I (stereo not shown) [Example 16]	4.45

Same assay, conditions: reverse-phase HPLC column (C 18), pH 2.3, reverse-phase column (C 18), 43° C.

chromatographic logP	Structure (SMILES)
3.88	CC(C)CC(C)c1ccccc1NC(=O)c1ccoc1I (stereo not shown) [Example 2, N-[2-(1,3-dimethylbutyl)phenyl]-2-iodo-3-furamide]
4.14	CC(C)CC(C)c1ccccc1NC(=O)c1ccsc1I (stereo not shown) [Example 1, N-[2-(1,3-dimethylbutyl)phenyl]-2-iodothiophene-3-carboxamide]
